{"source": "patent US20140171516A1", "about": "“GERANYLGERANYLACETONE FORMULATIONS” (COYOTE PHARMACEUTICALS, INC., priority 2012, published 2014)", "key": {"[1]": {"experiment": "Rat ocular pharmacokinetics study, Cohort 1: geranylgeranyl acetone concentration in eyes after topical eye drops", "assay_type": "in vivo", "conditions": "Sprague-Dawley, 0.25 mg/eye, 8 doses, average of 3 rats"}, "[2]": {"experiment": "Intraocular GGA level, topical ocular versus oral systemic administration", "assay_type": "in vivo", "conditions": "topical ocular composition of 5% GGA versus 200 mg/kg GGA by systemic administration orally"}}, "note": "Read-outs that look alike come from different tables or passages of the source."}
{"smiles": "CC(=O)CC/C=C(\\C)CC/C=C(\\C)CC/C=C(\\C)CCC=C(C)C", "note": "[CNS-102, all-trans geranylgeranyl acetone]", "values": [{"measurement": "concentration at 8 h", "setting": "[1]; contralateral eye, contralateral eye concentration (ng/g in Table 7), read-out: 8 h contra AVE", "value": 2100, "unit": "ng/g"}, {"measurement": "concentration at 8 h", "setting": "[1]; treated (ipsilateral) eye, treated eye concentration (ng/g in Table 7), read-out: 8 h ispi AVE", "value": 8770, "unit": "ng/g"}]}
{"smiles": "CC(=O)CCC=C(C)CC/C=C(\\C)CC/C=C(\\C)CCC=C(C)C", "note": "(mixture of isomers) [GGA, Geranylgeranyl acetone]", "values": [{"measurement": "levels of geranylgeranyl acetone achieved intraocularly, topical versus oral", "setting": "[2]", "value": "about 5 fold"}]}
